The record followed here is publication PMC2635646, “Recognition Properties and Competitive Assays of a Dual Dopamine/Serotonin Selective Molecularly Imprinted Polymer” (International Journal of Molecular Sciences, 2008).

The structures appear in SMILES notation. Where a name gives a salt, the structure may show the parent alone. Read-outs that look alike come from different tables or passages of the source.

Experiment [1] concerns serotonin receptors derived from rat hypothalamus. As to the kind of experiment: Saturation binding of S ligand to rat hypothalamus receptor (Scatchard). Details: species or system male-Wistar rat. Conditions: 50 mM Tris HCl, 37 °C, mean ± SD. The protocol:
The equilibrium binding constants of the ergots on dopamine and serotonin receptors derived from rat hypothalamus was examined in a displacement assay using the added D and S as the molecular probes. The male-Wistar rat hypothalami receptors were isolated using a previously described procedure. The receptor pellets were washed with 50 mM Tris HCl until the endogenous D and S are no longer found in the rinse as examined by the fluorescence method described in the binding study. The pellets were then re-suspended in 50 mM Tris HCl with 0.5 mM Na2EDTA, 0.1% Na ascorbate before use. The protein content of the receptor pellets was verified by using the procedure of Bradford. Saturation experiments for the rat hypothalamus receptor were carried out by varying the concentration of D or S ligand in a 50 mM Tris HCl with 0.5 mM Na2EDTA and 0.1% Na ascorbate solution at 37 °C. The D and S binding at various concentrations was determined, using the fluorescence spectroscopic method for assay of the unbound probe as in the binding study.

Experiment [2] is described as follows: 1H-NMR titration of template/functional monomer complexation. The experiment is classed as binding. The note with it: S template, d6-DMSO, 25 °C. From the text: A mixture of methanol and water (4:1, v/v) was chosen as the porogen solvent for the D and S templates, as the hydrochloride salts were soluble only in polar solvents. The strength and positioning of the monomer-template interactions are of importance in developing materials with good molecular recognition properties. For the current work, the functional monomers and cross-linker had been constructed into the MIP structure with a view toward obtaining an efficient recognition system in a polar medium. MAA and ACM were generally used as functional monomers for the imprinting process. Both D and S have a phenolic hydroxyl and the nitrogen atom(s) of the amine group(s) acts as a hydrogen donor-acceptor moiety for binding functional monomers with a corresponding hydrogen bonding pattern. […] However, the huge excess of water and methanol that would be form H-bonds in competition with template and monomer, would reduce binding energy between template and monomer. […] The MBAA cross-linker also forms hydrogen bonds with the carboxylic acid and amino groups of the templates. Figure 2 illustrates the dual dopamine/serotonin molecular recognition site generation in this work.
The change in chemical shifts of proton resonances as a function of D (or S) concentrations was studied in DMSO-d6.

For the compound `NCCc1c[nH]c2ccc(O)cc12` [S, serotonin hydrochloride], the “receptor binding (Bmax)” value in experiment [1] (n = 3) is 1.11 ± 0.01 pmol/mg protein. The Kd worked out at 0.00011 ± 1e-05 µM in experiment [1] (n = 3, read-out: dissociation constant (Kd)); 680 ± 100 µM in experiment [2] (1:1 complex, read-out: app. Kdiss with MAA, template's hydroxyl group); 920 ± 100 µM in experiment [2] (1:1 complex, read-out: app. Kdiss with MAA, template's indolyl amino group); 190 ± 100 µM in experiment [2] (read-out: app. Kdiss with ACM, template's hydroxyl group); 430 ± 100 µM in experiment [2] (read-out: app. Kdiss with ACM, template's indolyl amino group).
